Experiments:
[1] = target: T1, 14-3-3-Q (Homo sapiens, UniProt P27348); experiment: Fluorescent thermal shift assay (FTSA) with 14-3-3-Q; assay type: binding
T1 construct: purchased Abchem (so in the source)
T1 sequence (P27348 1-245): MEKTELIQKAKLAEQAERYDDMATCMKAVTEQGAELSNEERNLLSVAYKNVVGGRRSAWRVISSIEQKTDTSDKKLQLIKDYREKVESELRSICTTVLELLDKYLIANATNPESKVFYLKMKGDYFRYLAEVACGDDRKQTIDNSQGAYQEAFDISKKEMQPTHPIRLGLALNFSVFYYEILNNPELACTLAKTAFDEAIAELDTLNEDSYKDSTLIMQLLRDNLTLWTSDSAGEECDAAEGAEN
Procedure: (§1) His-tagged 14-3-3-E, B, and H plasmids were purchased from Addgene (plasmid ID# 31562, 39128, and 38814, respectively). E. coli (BL21) were transformed with extracted plasmids via heat shock and plated on selected media. Individual colonies were selected, grown, and sequenced to confirm gene presence. 1 L cultures were grown to an OD600 of 0.6 at 37 °C and 220 rpm. Protein expression was induced with 1 mM IPTG and expressed for 12 h at 100 rpm and room temperature (approximately 25 °C). Cells were spun down at 4000 rpm for 15 min at 4 °C and resuspended in lysis buffer containing 50 mM Tris (7.4), 150 mM NaCl, 0.08% DDM, 5 mM imidazole, and 5% glycerol (with an EDTA-free complete mini protease inhibitor cocktail). Cells were lysed via sonication, and the lysate was separated from cell debris by centrifugation at 15,000 rpm, 4 °C, for 45 min. The His-tagged protein was purified using QIAGEN Ni-NTA superflow columns, and the His-tag was removed with TEV protease. His-tag-removed proteins were further purified by size exclusion chromatography. His tag removal and size exclusion chromatography purification were done at the Northwestern University Protein Production core. […]
(§2) All of the FTSA experiments were conducted in HEPES buffer (60 mM HEPES, 150 mM NaCl, pH 7.4). […] The fluorescence was measured on a Bio-Rad CFX384 real-time PCR instrument.

[2] = target: T2, 14-3-3-B (Homo sapiens, UniProt P31946); experiment: Fluorescent thermal shift assay (FTSA) with 14-3-3-B; assay type: binding; conditions: 0 and 100 μM P2
T2 construct: His-tag (TEV-cleavable) (cleaved yes); host or cells: E. coli (BL21)
T2 sequence (P31946 1-246): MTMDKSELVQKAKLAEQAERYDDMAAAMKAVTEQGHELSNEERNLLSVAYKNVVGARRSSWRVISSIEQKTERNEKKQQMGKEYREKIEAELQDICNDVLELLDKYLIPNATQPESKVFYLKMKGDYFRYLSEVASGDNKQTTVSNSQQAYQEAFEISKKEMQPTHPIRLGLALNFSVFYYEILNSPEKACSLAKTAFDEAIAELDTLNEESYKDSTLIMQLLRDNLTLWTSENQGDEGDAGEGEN
Procedure: as §1, §2

[3] = target: T3, 14-3-3-H (Homo sapiens, UniProt Q04917); experiment: Fluorescent thermal shift assay (FTSA) with 14-3-3-H; assay type: binding
T3 construct: His-tag (TEV-cleavable) (cleaved yes); host or cells: E. coli (BL21)
T3 sequence (Q04917 1-246): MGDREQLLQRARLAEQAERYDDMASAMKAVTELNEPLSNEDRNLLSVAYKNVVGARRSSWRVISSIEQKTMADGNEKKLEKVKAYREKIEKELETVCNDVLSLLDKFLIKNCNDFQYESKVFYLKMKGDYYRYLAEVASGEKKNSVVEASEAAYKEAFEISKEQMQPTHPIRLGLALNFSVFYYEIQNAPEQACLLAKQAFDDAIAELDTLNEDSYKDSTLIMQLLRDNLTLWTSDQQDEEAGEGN
Procedure: as §1, §2

[4] = target: T4, 14-3-3-G (Homo sapiens, UniProt P61981); experiment: Fluorescent thermal shift assay (FTSA) with 14-3-3-G; assay type: binding; conditions: 0 and 100 μM P2
T4 construct: purchased Abchem (so in the source)
T4 sequence (P61981 1-247): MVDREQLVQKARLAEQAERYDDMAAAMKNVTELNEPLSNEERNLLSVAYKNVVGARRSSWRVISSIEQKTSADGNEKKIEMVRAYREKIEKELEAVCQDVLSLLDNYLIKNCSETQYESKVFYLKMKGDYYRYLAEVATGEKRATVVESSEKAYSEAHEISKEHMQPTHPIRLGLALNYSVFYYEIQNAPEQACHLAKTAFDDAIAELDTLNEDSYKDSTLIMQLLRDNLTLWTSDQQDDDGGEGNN
Procedure: as §1, §2

[5] = tested on: transgenic mice; conditions: earlier work of the authors; cited from earlier work
[6] = PRAPP photolysis under 312 nm UV, followed by HPLC; assay type: physicochemical; conditions: PBS under 312 nm UV irradiation; irradiation at 312 nm, 100 μM in PBS pH 7.4; read-out: photolysis half-life (T1/2)
Procedure: The PRAPP (100 μM) was dissolved in PBS (50 mM, pH 7.4 [1% DMSO v/v]) and irradiated with UV light (λ = 312 nm, 120 V, 60 Hz, 0.2 A [Spectroline model EB-160C], distance ∼4 cm). UV light was removed from the reaction mixtures at varying time points (1, 2, 5, 10, and 20 min) and immediately analyzed by HPLC-UV–vis278 nm (injection volume of 5 μL). PRAPP % remaining was determined based on the area under the curve (AUC) of the UV–vis278 nm chromatogram. A first-order exponential decay curve was generated based on the AUC of the UV–vis chromatogram at 0, 1, 2, 5, 10, and 20 min and used to determine t1/2 of photolysis.

half-life at 100 μM [6] [min]	Compound	Tm shift (ΔTm) ([1]; SYPRO orange) [°C]	Kd ([1]; fit of ΔTm versus concentration, n = 2, read-out: Kd^app) [µM]	binding (Tm shift) [2]	binding (Tm shift) [3]	binding (Tm shift) [4]	increase of the median survival rate [5] [%]
–	O=c1cc(COc2cc(Cl)cc(Cl)c2)[nH][nH]1 [P2]	1.1	4.32	no binding	no binding	no binding	13
3.12	C#CCN(Cc1cc(=O)[nH][nH]1)Cc1c(F)c(F)c(N=[N+]=[N-])c(F)c1F [PRAPP, 5-(((4-Azido-2,3,5,6-tetrafluorobenzyl)(prop-2-yn-1-yl)amino)methyl)-1,2-dihydro-3H-pyrazol-3-one]	–	–	–	–	–	–

Reference: article PMC10823514, “Target Identification of a Class of Pyrazolone Protein Aggregation Inhibitor Therapeutics for Amyotrophic Lateral Sclerosis” (ACS Central Science, 2023)
